Experimental data as given in patent US12077503B2, “Substituted cyclic amides and their use as herbicides” (FMC CORPORATION, priority 2015, dated 2024).

How the values were obtained:
Type in all cases: in vivo
[1] = system: sedge, umbrella (small-flower umbrella sedge, Cyperus difformis); assay: Test B flooded paddy test; settings: Flood, 0 to 100 scale where 0 is no effect and 100 is complete control, 13 to 15 d
Method in brief: (§1)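 Percent control, visually estimated after 13–15 d in the greenhouse on a 0–100 basis, compares treated pots with untreated ones; compound was put into paddy water 3 cm above the soil when plants had two leaves.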

[2] = system: rice (Oryra sativa); assay: Test B flooded paddy test; settings: Flood, 0 to 100 scale where 0 is no effect and 100 is complete control, 13 to 15 d
Method in brief: as §1

[3] = system: barnyardgrass (Echinochloa crus-galli); assay: Test B flooded paddy test; settings: Flood, 0 to 100 scale where 0 is no effect and 100 is complete control, 13 to 15 d
Method in brief: as §1

[4] = system: ducksalad (Heteranthera limosa); assay: Test B flooded paddy test; settings: Flood, 0 to 100 scale where 0 is no effect and 100 is complete control, 13 to 15 d
Method in brief: as §1

[5] = system: ragweed (common ragweed, Ambrosia elatior); assay: Test A preemergence; settings: for Plant response rating, Ragweed: 125 g ai/ha; for Ragweed plant response rating (0 to 100 scale, 0 is no effect, 100 is complete control): 500 g ai/ha, visual injury approx. 10 d
Method in brief: (§2)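 Treatment is preemergence as a directed soil spray after planting, or postemergence at the one- to two-leaf stage, with test chemical in a non-phytotoxic solvent mixture plus surfactant. Plants stay in the greenhouse about 10 d before visual injury scoring on a 0 to 100 scale versus untreated controls.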

[6] = system: giant foxtail (Setaria faberii); assay: Test A preemergence; settings: for Plant response rating, Foxtail, Giant: 125 g ai/ha; for Foxtail, Giant plant response rating (0 to 100 scale, 0 is no effect, 100 is complete control): 500 g ai/ha, visual injury approx. 10 d
Method in brief: as §2

[7] = system: Kochia (Kochia scoparia); assay: Test A preemergence; settings: for Plant response rating, Kochia: 125 g ai/ha; for Kochia plant response rating (0 to 100 scale, 0 is no effect, 100 is complete control): 500 g ai/ha, visual injury approx. 10 d
Method in brief: as §2

[8] = system: barnyardgrass (Echinochloa crus-galli); assay: Test A preemergence; settings: for Plant response rating, Barnyardgrass: 125 g ai/ha; for Barnyardgrass plant response rating (0 to 100 scale, 0 is no effect, 100 is complete control): 500 g ai/ha, visual injury approx. 10 d
Method in brief: as §2

[9] = system: pigweed (Amaranthus retroflexus); assay: Test A preemergence; settings: for Plant response rating, Pigweed: 125 g ai/ha; for Pigweed plant response rating (0 to 100 scale, 0 is no effect, 100 is complete control): 500 g ai/ha, visual injury approx. 10 d
[10] = system: ryegrass, Italian (Italian ryegrass, Lolium multiflorum); assay: Test A preemergence; settings: for Plant response rating, Ryegrass, Italian: 125 g ai/ha; for Ryegrass, Italian plant response rating (0 to 100 scale, 0 is no effect, 100 is complete control): 500 g ai/ha, visual injury approx. 10 d
Method in brief: as §2

[11] = system: Galium (catchweed bedstraw, Galium aparine); assay: Test A postemergence; settings: for Galium plant response rating: visual injury rating on 0 to 100 scale (0 no effect, 100 complete control), approx. 10 d
Method in brief: as §2

[12] = system: ragweed (common ragweed, Ambrosia elatior); assay: Test A postemergence; settings: for Ragweed plant response rating: visual injury rating on 0 to 100 scale (0 no effect, 100 complete control), approx. 10 d
Method in brief: as §2

[13] = system: giant foxtail (Setaria faberii); assay: Test A postemergence; settings: for Foxtail, Giant plant response rating: visual injury rating on 0 to 100 scale (0 no effect, 100 complete control), approx. 10 d
Method in brief: as §2

[14] = system: Kochia (Kochia scoparia); assay: Test A postemergence; settings: for Kochia plant response rating: visual injury rating on 0 to 100 scale (0 no effect, 100 complete control), approx. 10 d
Method in brief: as §2

[15] = system: corn (Zea mays); assay: Test A postemergence; settings: for Corn plant response rating: visual injury rating on 0 to 100 scale (0 no effect, 100 complete control), approx. 10 d
Method in brief: as §2

[16] = system: barnyardgrass (Echinochloa crus-galli); assay: Test A postemergence; settings: for Barnyardgrass plant response rating: 125 g ai/ha, visual injury rating on 0 to 100 scale (0 no effect, 100 complete control), approx. 10 d; for Plant response rating, Barnyardgrass: 500 g ai/ha
Method in brief: as §2

[17] = system: pigweed (Amaranthus retroflexus); assay: Test A postemergence; settings: for Pigweed plant response rating: visual injury rating on 0 to 100 scale (0 no effect, 100 complete control), approx. 10 d
Method in brief: as §2

[18] = system: ryegrass, Italian (Italian ryegrass, Lolium multiflorum); assay: Test A postemergence; settings: for Ryegrass, Italian plant response rating: visual injury rating on 0 to 100 scale (0 no effect, 100 complete control), approx. 10 d
Method in brief: as §2

[19] = system: blackgrass (Alopecurus myosuroides); assay: Test A postemergence; settings: for Blackgrass plant response rating: 125 g ai/ha, visual injury rating on 0 to 100 scale (0 no effect, 100 complete control), approx. 10 d; for Plant response rating, Blackgrass: 500 g ai/ha
Method in brief: as §2

[20] = system: wheat (Triticum aestivum); assay: Test A postemergence; settings: for Wheat plant response rating: visual injury rating on 0 to 100 scale (0 no effect, 100 complete control), approx. 10 d
Method in brief: as §2

[21] = preemergence, 0 to 100 scale (0 no effect, 100 complete control)
[22] = 500 g ai/ha, postemergence, 0 to 100 scale, 0 no effect, 100 complete control
[23] = postemergence, 0 to 100 scale, 0 no effect, 100 complete control
[24] = Preemergence, visual injury after approximately 10 d, 0 to 100 scale where 0 is no effect and 100 is complete control
[25] = 125 g ai/ha, postemergence, visual rating after approx. 10 d, 0 to 100 scale (0 no effect, 100 complete control)
[26] = Postemergence, 500 g ai/ha, 0 to 100 scale where 0 is no effect and 100 is complete control
[27] = Postemergence, 0 to 100 scale where 0 is no effect and 100 is complete control

O=C1NCC(c2ccc(F)c(F)c2)C1C(=O)Nc1ccc(Cl)cc1F (centres unmarked) [Compound 410]
50: Plant response rating, Barnyardgrass [8, 21] | Plant response rating, Barnyardgrass [16, 23]
40: Plant response rating, Foxtail, Giant [13, 22]
60: Barnyardgrass plant response rating (0 to 100 scale, 0 is no effect, 100 is complete control) ([8]; Preemergence)
20: Pigweed plant response rating (0 to 100 scale, 0 is no effect, 100 is complete control) ([9]; Preemergence) | Barnyardgrass plant response rating ([16]; postemergence) | Plant response rating, Pigweed [17, 22] | Plant response rating, Blackgrass [19, 23]
70: Plant response rating, Foxtail, Giant [6, 21]
0: Plant response rating, Sedge, Umbrella ([1]; 500 g ai/ha) | Plant response rating, Rice ([2]; 500 g ai/ha) | Plant response rating, Barnyardgrass ([3]; 500 g ai/ha) | Plant response rating, Ragweed [5, 21] | Ragweed plant response rating (0 to 100 scale, 0 is no effect, 100 is complete control) ([5]; Preemergence) | Plant response rating, Kochia [7, 21] | Kochia plant response rating (0 to 100 scale, 0 is no effect, 100 is complete control) ([7]; Preemergence) | Plant response rating, Pigweed [9, 21] | Plant response rating, Ryegrass, Italian [10, 21] | Ryegrass, Italian plant response rating (0 to 100 scale, 0 is no effect, 100 is complete control) ([10]; Preemergence) | Galium plant response rating ([11]; 125 g ai/ha, postemergence) | Plant response rating, Galium [11, 22] | Ragweed plant response rating ([12]; 125 g ai/ha, postemergence) | Plant response rating, Ragweed [12, 22] | Foxtail, Giant plant response rating ([13]; 125 g ai/ha, postemergence) | Kochia plant response rating ([14]; 125 g ai/ha, postemergence) | Plant response rating, Kochia [14, 22] | Corn plant response rating ([15]; 125 g ai/ha, postemergence) | Plant response rating, Corn [15, 22] | Pigweed plant response rating ([17]; 125 g ai/ha, postemergence) | Ryegrass, Italian plant response rating ([18]; 125 g ai/ha, postemergence) | Plant response rating, Ryegrass, Italian [18, 22] | Blackgrass plant response rating ([19]; postemergence) | Wheat plant response rating ([20]; 125 g ai/ha, postemergence) | Plant response rating, Wheat [20, 22]
30: Plant response rating, Ducksalad ([4]; 500 g ai/ha)
80: Foxtail, Giant plant response rating (0 to 100 scale, 0 is no effect, 100 is complete control) ([6]; Preemergence)

Cc1cc(C2CN(C)C(=O)C2C(=O)Nc2ccccc2F)ccc1F (centres unmarked) [Compound 402]
80: Plant response rating, Corn [15, 22] | Plant response rating, Wheat [20, 22]
30: Plant response rating, Pigweed [9, 21] | Ryegrass, Italian plant response rating ([18]; 125 g ai/ha, postemergence)
100: Plant response rating, Barnyardgrass ([3]; 250 g ai/ha)
70: Ragweed plant response rating (0 to 100 scale, 0 is no effect, 100 is complete control) ([5]; Preemergence) | Kochia plant response rating (0 to 100 scale, 0 is no effect, 100 is complete control) ([7]; Preemergence) | Corn plant response rating ([15]; 125 g ai/ha, postemergence) | Plant response rating, Blackgrass [19, 23]
0: Plant response rating, Sedge, Umbrella ([1]; 250 g ai/ha) | Plant response rating, Rice ([2]; 250 g ai/ha)
60: Plant response rating, Galium [11, 22] | Plant response rating, Ragweed [12, 22] | Plant response rating, Kochia [14, 22]
90: Plant response rating, Ducksalad ([4]; 250 g ai/ha) | Plant response rating, Foxtail, Giant [6, 21] | Foxtail, Giant plant response rating (0 to 100 scale, 0 is no effect, 100 is complete control) ([6]; Preemergence) | Plant response rating, Barnyardgrass [8, 21] | Barnyardgrass plant response rating (0 to 100 scale, 0 is no effect, 100 is complete control) ([8]; Preemergence) | Foxtail, Giant plant response rating ([13]; 125 g ai/ha, postemergence) | Plant response rating, Foxtail, Giant [13, 22] | Barnyardgrass plant response rating ([16]; postemergence) | Plant response rating, Barnyardgrass [16, 23]
50: Pigweed plant response rating (0 to 100 scale, 0 is no effect, 100 is complete control) ([9]; Preemergence) | Galium plant response rating ([11]; 125 g ai/ha, postemergence) | Plant response rating, Pigweed [17, 22] | Plant response rating, Ryegrass, Italian [18, 22] | Blackgrass plant response rating ([19]; postemergence) | Wheat plant response rating ([20]; 125 g ai/ha, postemergence)
40: Plant response rating, Kochia [7, 21] | Ryegrass, Italian plant response rating (0 to 100 scale, 0 is no effect, 100 is complete control) ([10]; Preemergence) | Pigweed plant response rating ([17]; 125 g ai/ha, postemergence)
20: Plant response rating, Ryegrass, Italian [10, 21] | Ragweed plant response rating ([12]; 125 g ai/ha, postemergence) | Kochia plant response rating ([14]; 125 g ai/ha, postemergence)

O=C1NCC(c2ccc(Oc3ccccc3)cc2)C1C(=O)Nc1ccccc1F (racemic) [Compound 534]
0: Plant response rating, Sedge, Umbrella ([1]; 500 g ai/ha) | Plant response rating, Barnyardgrass ([3]; 500 g ai/ha) | Plant response rating, Ducksalad ([4]; 500 g ai/ha) | Plant response rating, Ragweed [5, 24] | Ragweed plant response rating (0 to 100 scale, 0 is no effect, 100 is complete control) ([5]; Preemergence) | Plant response rating, Foxtail, Giant [6, 24] | Foxtail, Giant plant response rating (0 to 100 scale, 0 is no effect, 100 is complete control) ([6]; Preemergence) | Plant response rating, Kochia [7, 24] | Kochia plant response rating (0 to 100 scale, 0 is no effect, 100 is complete control) ([7]; Preemergence) | Plant response rating, Barnyardgrass [8, 24] | Barnyardgrass plant response rating (0 to 100 scale, 0 is no effect, 100 is complete control) ([8]; Preemergence) | Plant response rating, Pigweed [9, 24] | Pigweed plant response rating (0 to 100 scale, 0 is no effect, 100 is complete control) ([9]; Preemergence) | Plant response rating, Ryegrass, Italian [10, 24] | Ryegrass, Italian plant response rating (0 to 100 scale, 0 is no effect, 100 is complete control) ([10]; Preemergence) | Plant response rating, Galium [11, 25] | Plant response rating, Galium [11, 26] | Plant response rating, Ragweed [12, 25] | Plant response rating, Ragweed [12, 26] | Plant response rating, Foxtail, Giant [13, 25] | Plant response rating, Foxtail, Giant [13, 26] | Plant response rating, Kochia [14, 25] | Plant response rating, Kochia [14, 26] | Plant response rating, Corn [15, 25] | Plant response rating, Corn [15, 26] | Barnyardgrass plant response rating ([16]; postemergence) | Plant response rating, Barnyardgrass [16, 27] | Plant response rating, Pigweed [17, 25] | Plant response rating, Pigweed [17, 26] | Plant response rating, Ryegrass, Italian [18, 25] | Plant response rating, Ryegrass, Italian [18, 26] | Blackgrass plant response rating ([19]; postemergence) | Plant response rating, Blackgrass [19, 27] | Plant response rating, Wheat [20, 25] | Plant response rating, Wheat [20, 26]
20: Plant response rating, Rice ([2]; 500 g ai/ha)
